The results in this text go back to patent publication US20260049101A1, “TOPICAL TREATMENT OF SKIN CANCER USING OLIGOPEPTIDES” (BACOBA AG, priority 2022, published 2026).

The structures appear in SMILES notation. Numbered stars: 1 amine (or outer) side, 2 acyl side, 3 side chain; on linkers, the order of the positions; unused ones are H or OH. Square brackets hold non-standard residues; d marks the D form. Peptide text beside a SMILES is read from it. * marks the point of attachment. X2 = COc1ccc2nc(C[C@H](N[*:1])C(=O)[*:2])sc2c1; X5 = O=C([C@H](Cc1nc2ccc(F)cc2s1)N[*:1])[*:2]; Abu(4,4,4-F3) = N[C@@H](CC(F)(F)F)C(=O)O; NH(1-CH2NMe2-cBu) = CN(C)CC1(N*)CCC1; X8 = COc1ccc2cc(C(=O)*)c(=O)oc2c1; β3hAib = CC(C)(CC(=O)[*:2])N[*:1]; Benzoyl(4-F) = O=C(c1ccc(F)cc1)*; hCha = N[C@@H](CCC1CCCCC1)C(=O)O; Aib = CC(C)(N)C(=O)O; X3 = CN(CCN*)CC(F)F; βAla = NCCC(=O)O Some results are limits rather than exact numbers.

The test system of this test is cutaneous squamous cell carcinoma cell line SCC12. The test is described as follows: In vitro anti-proliferative assay (resazurin) in SCC12. The test is classed as cell-based. The settings on record: SCC12, 72 hours. The source says:
Methodology. The cutaneous squamous cell carcinoma cell culture SCC12 was cultivated in keratinocyte-SFM media (KSFM, Cat #17005042, Gibco) supplemented with human recombinant epidermal growth factor 1-53 (EGF 1-53) and bovine pituitary extract (BFE).
Vehicle treated wells were set to 100% viability.
A general note: The colour change of resazurin is a common sign of viable cells or microbes.
As a reminder, the IC50 is the midpoint of a concentration-inhibition curve. Low readings indicate greater potency in that assay, high ones weaker potency in that assay. Take `CC(C)C[C@H](NC(=O)[C@H](CCC1CCCCC1)NC(=O)[C@@H]1CCCN1C(=O)c1ccc(F)cc1)C(=O)NC(C)(C)C(=O)N[C@@H](CC(C)C)C(=O)N[C@@H](CC(C)C)C(=O)NC(C)(C)C(=O)NC(C)(C)C(=O)NCCC(=O)NCCN(C)CC(F)F` [Compound 8342, (2S)-2-[(2S)-4-cyclohexyl-2-{[(2S)-1-(4-fluorobenzoyl)pyrrolidin-2-yl]formamido}butanamido]-N-(1-{[(1S)-1-{[(1S)-1-({1-[(1-{[2-({2-[(2,2-difluoroethyl)(methyl)amino]ethyl}carbamoyl)ethyl]carbamoyl}-1-methylethyl)carbamoyl]-1-methylethyl}carbamoyl)-3-methylbutyl]carbamoyl}-3-methylbutyl]carbamoyl}-1-methylethyl)-4-methylpentanamide] ({Benzoyl(4-F)}-P[hCha]L[Aib]LL[Aib][Aib][βAla]-X3): half-maximal inhibition (IC50) required 584 nM.
For the molecule `CN(C)CC1(NC(=O)CCNC(=O)C(C)(C)NC(=O)C(C)(C)NC(=O)[C@H](CC(F)(F)F)NC(=O)[C@H](CC(F)(F)F)NC(=O)C(C)(C)NC(=O)[C@H](CC(F)(F)F)NC(=O)[C@H](CCC2CCCCC2)NC(=O)[C@@H]2CCCN2C(=O)c2ccc(F)cc2)CCC1` [Compound 21372, (2S)-4-cyclohexyl-N-[(1S)-1-[(1-{[(1S)-1-{[(1S)-1-({1-[(1-{[2-({1-[(dimethylamino)methyl]cyclobutyl}carbamoyl)ethyl]carbamoyl}-1-methylethyl)carbamoyl]-1-methylethyl}carba-moyl)-3,3,3-trifluoropropyl]carbamoyl}-3,3,3-trifluoropropyl]carbamoyl}-1-methylethyl)carbamoyl]-3,3,3-trifluoropropyl]-2-{[(2S)-1-(4-fluorobenzoyl)pyrrolidin-2-yl]formamido}butanamide] ({Benzoyl(4-F)}-P[hCha][Abu(4,4,4-F3)][Aib][Abu(4,4,4-F3)][Abu(4,4,4-F3)][Aib][Aib][βAla]-{NH(1-CH2NMe2-cBu)}), 442 nM corresponded to half-maximal inhibition (IC50).
The molecule `CC(C)C[C@H](NC(=O)[C@H](CCC1CCCCC1)NC(=O)[C@@H]1CCCN1C(=O)c1ccc(F)cc1)C(=O)NC(C)(C)C(=O)N[C@@H](CC(C)C)C(=O)N[C@@H](CC(C)C)C(=O)NC(C)(C)C(=O)NC(C)(C)CC(=O)NCCC(=O)NC1(CN(C)C)CCC1` [Compound 21365, (2S)-2-[(2S)-4-cyclohexyl-2-{[(2S)-1-(4-fluorobenzoyl)pyrrolidin-2-yl]formamido}butan-amido]-N-(1-{[(1S)-1-{[(1S)-1-({1-[(1-{[2-({1-[(dimethylamino)methyl]cyclobutyl}carbamoyl)ethyl]carbamoyl}-2-methylpropan-2-yl)carbamoyl]-1-methylethyl}carbamoyl)-3-methylbutyl]carbamoyl}-3-methylbutyl]carbamoyl}-1-methylethyl)-4-methylpentanamide] ({Benzoyl(4-F)}-P[hCha]L[Aib]LL[Aib][β3hAib][βAla]-{NH(1-CH2NMe2-cBu)}) returned an IC50 of 511 nM.
`COc1ccc2nc(C[C@H](NC(=O)[C@@H]3CCCN3C(=O)c3ccc(F)cc3)C(=O)N[C@@H](CC(C)C)C(=O)NC(C)(C)C(=O)N[C@@H](CC(C)C)C(=O)N[C@@H](CC(C)C)C(=O)NC(C)(C)C(=O)NC(C)(C)C(=O)NCCC(=O)NC3(CN(C)C)CCC3)sc2c1` [Compound 7844, (2S)—N-(1-{[(1S)-1-{[(1S)-1-({1-[(1-{[2-({1-[(dimethylamino)methyl]cyclobutyl}carbamoyl)ethyl]carbamoyl}-1-methylethyl)carbamoyl]-1-methylethyl}carbamoyl)-3-methylbutyl]carbamoyl}-3-methylbutyl]carbamoyl}-1-methylethyl)-2-[(2S)-2-{[(2S)-1-(4-fluorobenzoyl)pyrrolidin-2-yl]formamido}-3-(6-methoxy-1,3-benzothiazol-2-yl)propanamido]-4-methylpentanamide] ({Benzoyl(4-F)}-P[X2]L[Aib]LL[Aib][Aib][βAla]-{NH(1-CH2NMe2-cBu)}) returned a half-maximal inhibitory concentration (IC50) of 546 nM.
The same measure for `COc1ccc2cc(C(=O)N3CCC[C@H]3C(=O)N[C@@H](CCC3CCCCC3)C(=O)N[C@@H](CC(C)C)C(=O)NC(C)(C)C(=O)N[C@@H](CC(C)C)C(=O)N[C@@H](CC(C)C)C(=O)NC(C)(C)C(=O)NC(C)(C)C(=O)NCCC(=O)NC3(CN(C)C)CCC3)c(=O)oc2c1` [Compound 21287, (2S)-2-[(2S)-4-cyclohexyl-2-{[(2S)-1-(7-methoxy-2-oxo-2H-chromene-3-carbonyl)pyrrolidin-2-yl]formamido}butanamido]-N-(1-{[(1S)-1-{[(1S)-1-({1-[(1-{[2-({1-[(dimethylamino)methyl]cyclobutyl}carbamoyl)ethyl]carbamoyl}-1-methylethyl)carbamoyl]-1-methylethyl}carbamoyl)-3-methylbutyl]carbamoyl}-3-methylbutyl]carbamoyl}-1-methylethyl)-4-methylpentanamide] (X8-P[hCha]L[Aib]LL[Aib][Aib][βAla]-{NH(1-CH2NMe2-cBu)}): 595 nM; for `CC(C)C[C@H](NC(=O)[C@H](Cc1nc2ccc(F)cc2s1)NC(=O)[C@@H]1CCCN1C(=O)c1ccc(F)cc1)C(=O)NC(C)(C)C(=O)N[C@@H](CC(C)C)C(=O)N[C@@H](CC(C)C)C(=O)NC(C)(C)C(=O)NC(C)(C)C(=O)NCCC(=O)NC1(CN(C)C)CCC1` [Compound 7848, (2S)—N-(1-{[(1S)-1-{[(1S)-1-({1-[(1-{[2-({1-[(dimethylamino)methyl]cyclobutyl}carbamoyl)ethyl]carbamoyl}-1-methylethyl)carbamoyl]-1-methylethyl}carbamoyl)-3-methylbutyl]carbamoyl}-3-methylbutyl]carbamoyl}-1-methylethyl)-2-[(2S)-3-(6-fluoro-1,3-benzothiazol-2-yl)-2-{[(2S)-1-(4-fluorobenzoyl)pyrrolidin-2-yl]formamido}propanamido]-4-methylpentanamide] ({Benzoyl(4-F)}-P[X5]L[Aib]LL[Aib][Aib][βAla]-{NH(1-CH2NMe2-cBu)}): 182 nM.
`CC(C)C[C@H](NC(=O)[C@H](CCC1CCCCC1)NC(=O)[C@@H]1CCCN1C(=O)c1ccc(F)cc1)C(=O)NCC(C)(C)C(=O)N[C@@H](CC(C)C)C(=O)N[C@@H](CC(C)C)C(=O)NCC(C)(C)C(=O)NCC(C)(C)C(=O)NCCC(=O)NC1(CN(C)C)CCC1` [Compound 21189, (2S)-2-[(2S)-4-cyclohexyl-2-{[(2S)-1-(4-fluorobenzoyl)pyrrolidin-2-yl]formamido}butan-amido]-N-(2-{[(1S)-1-{[(1S)-1-({2-[(2-{[2-({1-[(dimethylamino)methyl]cyclobutyl}carbamoyl)ethyl]carbamoyl}-2,2-dimethylethyl)carbamoyl]-2,2-dimethylethyl}carbamoyl)-3-methylbutyl]carbamoyl}-3-methylbutyl]carbamoyl}-2,2-dimethylethyl)-4-methylpentanamide] gave an IC50 of over 10000 nM.
